Values of other authors in patent publication US5243035A, “Sialic acid-containing glycolipid derivatives” (Drug Delivery System Institute, Ltd., priority 1990, dated 1993).

Conditions: incorporated into liposome membrane; literature report

## ganglioside GM1
  resistance of liposome to capture by the reticuloendothelial system: increased resistance to capture by the reticuloendothelial system
